From PMC10041525, “New Dual Inhibitors of Bacterial Topoisomerases with Broad-Spectrum Antibacterial Activity and In Vivo Efficacy against Vancomycin-Intermediate Staphylococcus aureus” (Journal of Medicinal Chemistry, 2023)
Several values for one entry are separate records, joined by “and”; a condition that tells them apart may be missing. Equal values may be shown once.

Columns and labels:
E. coli ATCC 25922 = test: IHMA QC MIC; assay type: cell-based
[1] = system: N. gonorrhoeae ATCC 49226; set-up: method as in earlier work; conditions: QC range for N. gonorrhoeae ATCC 49226, ref CLSI; cited from earlier work
S. pneumoniae (n = 12) = test: MIC broth microdilution at IHMA Europe; assay type: cell-based
S. pneumoniae ATCC 49619 [2] = test: IHMA QC MIC; assay type: cell-based
Excerpt: (§1) Supplement jm2c01905_si_004.xlsx, sheet "QC" | column: MIC [µg/mL]

H. influenzae ATCC 49247 = test: IHMA QC MIC; assay type: cell-based
Excerpt: as §1

E. faecalis ATCC 29212 [3] = test: IHMA QC MIC; assay type: cell-based
Excerpt: as §1

[4] = system: N. gonorrhoeae ATCC 49226; test: IHMA QC MIC; assay type: cell-based; conditions: QC strain N. gonorrhoeae ATCC 49226, test date 2021-11-18
Excerpt: as §1

H. influenzae ATCC 49766 = test: IHMA QC MIC; assay type: cell-based
Excerpt: as §1

E. faecalis ATCC 29212 [5] = system: E. faecalis ATCC 29212; set-up: method as in earlier work; conditions: QC range for E. faecalis ATCC 29212, ref CLSI; cited from earlier work
P. aeruginosa ATCC 27853 = test: IHMA QC MIC; assay type: cell-based
S. pneumoniae ATCC 49619 [6] = system: S. pneumoniae ATCC 49619; set-up: method as in earlier work; conditions: QC range for S. pneumoniae ATCC 49619, ref CLSI; cited from earlier work
E. faecium (n = 13) = test: MIC broth microdilution at IHMA Europe; assay type: cell-based
[7] = system: Neisseria gonorrhoeae (n = 12); test: MIC broth microdilution at IHMA Europe; assay type: cell-based
[8] = system: Haemophilus influenzae (n = 14); test: MIC broth microdilution at IHMA Europe; assay type: cell-based, H. influenzae

## penicillin
E. coli ATCC 25922; QC strain E. coli ATCC 25922, test date 2021-11-11
  MIC: 32 µg/mL and 16 µg/mL
E. coli ATCC 25922; QC strain E. coli ATCC 25922, test date 2021-11-26
  MIC: 32 µg/mL
[1]
  MIC, CLSI Range: 0,25 - 1 µg/mL
S. pneumoniae (n = 12); MIC 0.5 µg/mL
  Cumulative % at MIC: 25.0%
  No. of isolates at MIC: 2
S. pneumoniae (n = 12); MIC 1 µg/mL
  Cumulative % at MIC: 41.7%
  No. of isolates at MIC: 2
S. pneumoniae (n = 12); MIC 2 µg/mL
  Cumulative % at MIC: 83.3%
  No. of isolates at MIC: 5
S. pneumoniae (n = 12); MIC […] µg/mL
  Cumulative % at MIC: 100.0%
  No. of isolates at MIC: 2
S. pneumoniae (n = 12); MIC ≤0.03 µg/mL
  Cumulative % at MIC: 8.3%
  No. of isolates at MIC: 1
S. pneumoniae (n = 12); S. pneumoniae IHMA N° 1775387
  MIC: 2 µg/mL
S. pneumoniae (n = 12); S. pneumoniae IHMA N° 1776057
  MIC: 1 µg/mL
S. pneumoniae (n = 12); S. pneumoniae IHMA N° 1785617
  MIC: 4 µg/mL
S. pneumoniae (n = 12); S. pneumoniae IHMA N° 1800765
  MIC: 0.5 µg/mL
S. pneumoniae (n = 12); S. pneumoniae IHMA N° 1811259
  MIC: 1 µg/mL
S. pneumoniae (n = 12); S. pneumoniae IHMA N° 1831562
  MIC: ≤0,03 µg/mL
S. pneumoniae (n = 12); S. pneumoniae IHMA N° 1902609
  MIC: 2 µg/mL
S. pneumoniae (n = 12); S. pneumoniae IHMA N° 1979675
  MIC: 2 µg/mL
S. pneumoniae (n = 12); S. pneumoniae IHMA N° 1991963
  MIC: 2 µg/mL
S. pneumoniae (n = 12); S. pneumoniae IHMA N° 2057487
  MIC: 2 µg/mL
S. pneumoniae (n = 12); S. pneumoniae IHMA N° 2073087
  MIC: 4 µg/mL
S. pneumoniae (n = 12); S. pneumoniae IHMA N° 2117109
  MIC: 0.5 µg/mL
S. pneumoniae ATCC 49619 [2]; QC strain S. pneumoniae ATCC 49619, test date 2021-11-11
  MIC: 0.25 µg/mL
S. pneumoniae ATCC 49619 [2]; QC strain S. pneumoniae ATCC 49619, test date 2021-11-26
  MIC: 0.25 µg/mL
H. influenzae ATCC 49247; QC strain H. influenzae ATCC 49247, test date 2021-11-11
  MIC: 4 µg/mL and 8 µg/mL
H. influenzae ATCC 49247; QC strain H. influenzae ATCC 49247, test date 2021-11-26
  MIC: 4 µg/mL
E. faecalis ATCC 29212 [3]; QC strain E. faecalis ATCC 29212, test date 2021-11-11
  MIC: 2 µg/mL
E. faecalis ATCC 29212 [3]; QC strain E. faecalis ATCC 29212, test date 2021-11-26
  MIC: 2 µg/mL
[4]
  MIC: 0.25 µg/mL
H. influenzae ATCC 49766; QC strain H. influenzae ATCC 49766, test date 2021-11-11
  MIC: 0.25 µg/mL
H. influenzae ATCC 49766; QC strain H. influenzae ATCC 49766, test date 2021-11-26
  MIC: 0.25 µg/mL
E. faecalis ATCC 29212 [5]
  MIC, CLSI Range: 1 to 4 µg/mL
P. aeruginosa ATCC 27853; QC strain P. aeruginosa ATCC 27853, test date 2021-11-11
  MIC: >32 µg/mL and 32 µg/mL
P. aeruginosa ATCC 27853; QC strain P. aeruginosa ATCC 27853, test date 2021-11-26
  MIC: >32 µg/mL
S. pneumoniae ATCC 49619 [6]
  MIC, CLSI Range: 0,25 - 1 µg/mL
E. faecium (n = 13); E. faecium IHMA N° 1764866
  MIC: >32 µg/mL
E. faecium (n = 13); E. faecium IHMA N° 1765436
  MIC: >32 µg/mL
E. faecium (n = 13); E. faecium IHMA N° 1765746
  MIC: >32 µg/mL
E. faecium (n = 13); E. faecium IHMA N° 1893573
  MIC: >32 µg/mL
E. faecium (n = 13); E. faecium IHMA N° 1893846
  MIC: >32 µg/mL
E. faecium (n = 13); E. faecium IHMA N° 1893942
  MIC: >32 µg/mL
E. faecium (n = 13); E. faecium IHMA N° 1894055
  MIC: >32 µg/mL
E. faecium (n = 13); E. faecium IHMA N° 1897027
  MIC: >32 µg/mL
E. faecium (n = 13); E. faecium IHMA N° 1897101
  MIC: >32 µg/mL
E. faecium (n = 13); E. faecium IHMA N° 1904592
  MIC: >32 µg/mL
E. faecium (n = 13); E. faecium IHMA N° 2075051
  MIC: >32 µg/mL
E. faecium (n = 13); E. faecium IHMA N° 2077718
  MIC: >32 µg/mL
E. faecium (n = 13); E. faecium IHMA N° 2083787
  MIC: >32 µg/mL
E. faecium (n = 13); MIC >32 µg/mL
  Cumulative % at MIC: 100.0%
  No. of isolates at MIC: 13
[7]; MIC 0.5 µg/mL
  Cumulative % at MIC: 33.3%
  No. of isolates at MIC: 2
[7]; MIC 1 µg/mL
  Cumulative % at MIC: 50.0%
  No. of isolates at MIC: 2
[7]; MIC 2 µg/mL
  Cumulative % at MIC: 75.0%
  No. of isolates at MIC: 3
[7]; MIC >16 µg/mL
  Cumulative % at MIC: 100.0%
  No. of isolates at MIC: 2
[7]; MIC […]
  Cumulative % at MIC: 16.7%
  No. of isolates at MIC: 2
[7]; MIC […] µg/mL
  Cumulative % at MIC: 83.3%
  No. of isolates at MIC: 1
[7]; isolate IHMA 1123853
  MIC: 4 µg/mL
[7]; isolate IHMA 1130935
  MIC: 0.25 µg/mL
[7]; isolate IHMA 1130989
  MIC: 0.25 µg/mL
[7]; isolate IHMA 1130991
  MIC: 2 µg/mL
[7]; isolate IHMA 1137292
  MIC: 1 µg/mL
[7]; isolate IHMA 1145734
  MIC: 2 µg/mL
[7]; isolate IHMA 1145735
  MIC: >16 µg/mL
[7]; isolate IHMA 1165897
  MIC: >16 µg/mL
[7]; isolate IHMA 1194748
  MIC: 0.5 µg/mL
[7]; isolate IHMA 1194750
  MIC: 0.5 µg/mL
[7]; isolate IHMA 1546199
  MIC: 2 µg/mL
[7]; isolate IHMA 1546215
  MIC: 1 µg/mL
[8]; H. influenzae IHMA N° 1227715
  MIC: 32 µg/mL
[8]; H. influenzae IHMA N° 1241620
  MIC: 16 µg/mL
[8]; H. influenzae IHMA N° 1244149
  MIC: 32 µg/mL
[8]; H. influenzae IHMA N° 1249803
  MIC: 4 µg/mL
[8]; H. influenzae IHMA N° 1254355
  MIC: 4 µg/mL
[8]; H. influenzae IHMA N° 1258580
  MIC: 16 µg/mL
[8]; H. influenzae IHMA N° 1262734
  MIC: 16 µg/mL
[8]; H. influenzae IHMA N° 1272723
  MIC: 16 µg/mL
[8]; H. influenzae IHMA N° 1286846
  MIC: 16 µg/mL
[8]; H. influenzae IHMA N° 1337530
  MIC: 32 µg/mL
[8]; H. influenzae IHMA N° 1440085
  MIC: 16 µg/mL
[8]; H. influenzae IHMA N° 1479509
  MIC: 16 µg/mL
[8]; H. influenzae IHMA N° 1952952
  MIC: 8 µg/mL
[8]; H. influenzae IHMA N° 2047461
  MIC: >32 µg/mL
[8]; MIC […] µg/mL
  Cumulative % at MIC: 71.4%
  No. of isolates at MIC: 7
[8]; MIC 32 µg/mL
  Cumulative % at MIC: 92.9%
  No. of isolates at MIC: 3
[8]; MIC >32 µg/mL
  Cumulative % at MIC: 100.0%
  No. of isolates at MIC: 1
